Data from article PMC7050772 (Cellular physiology and biochemistry : international …, 2020).
Like-named read-outs stand apart in the source and are kept apart here.

How the values were obtained:
[1] = target: T1, cytochrome P450 1A1 (CYP1A1) (Homo sapiens, UniProt P04798); assay: P450-Glo Luc-CEE luminescence assay with recombinant CYP1A1 microsomes; format: biochemical
T1 sequence (P04798 1-512): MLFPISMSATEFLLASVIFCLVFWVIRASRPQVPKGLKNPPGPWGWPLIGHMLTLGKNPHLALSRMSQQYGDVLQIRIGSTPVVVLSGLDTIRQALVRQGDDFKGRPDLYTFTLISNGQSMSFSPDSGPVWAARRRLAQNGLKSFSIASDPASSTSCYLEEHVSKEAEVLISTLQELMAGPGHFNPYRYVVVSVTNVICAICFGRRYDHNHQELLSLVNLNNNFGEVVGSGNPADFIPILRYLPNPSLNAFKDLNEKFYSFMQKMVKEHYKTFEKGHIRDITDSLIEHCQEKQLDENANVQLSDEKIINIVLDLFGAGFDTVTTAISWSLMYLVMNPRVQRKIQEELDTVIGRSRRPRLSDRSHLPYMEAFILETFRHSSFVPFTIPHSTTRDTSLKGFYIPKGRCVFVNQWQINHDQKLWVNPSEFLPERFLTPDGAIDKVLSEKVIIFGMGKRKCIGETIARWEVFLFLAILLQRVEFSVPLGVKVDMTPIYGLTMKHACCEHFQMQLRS

[2] = target: T1, cytochrome P450 1A1 (CYP1A1); assay: as above; format: biochemical; remark: listed apart in the source

| SMILES | IC50 [1] [nM] | IC50 [2] [nM] |
| --- | --- | --- |
| NCCc1c[nH]c2ccc(O)cc12 [5-HT, Serotonin] | 1620 | – |
| NCCc1c[nH]c2ccccc12 [TRYPT, Tryptamine] | – | 1400 |
| O=c1cc(-c2ccccc2)oc2c1ccc1ccccc12 [α-NF, α-naphthoflavone, reference compound] | – | 760 |
